Source: patent US20220401482A1, “GENERATION OF CD38 KNOCK-OUT PRIMARY AND EXPANDED HUMAN NK CELLS” (RESEARCH INSTITUTE AT NATIONWIDE CHILDREN'S HOSPITAL, priority 2019, published 2022)

Key:
[1] = test system: CD38 on NK cells; assay: CD38 expression on PB-NK of APL patients during ATRA treatment; format: in vivo, human; settings: consolidation therapy, versus prior to treatment
Procedure: (§1) FIGS. 15A-15B show cytotoxicity and DARA-mediated ADCC activity of paired CD38^WT and CD38^KO NK cells against myeloma cell lines pretreated with 50 nM ATRA for 48 hours (mean±SD). […] Frozen peripheral blood mononuclear cells were thawed and analyzed at once. […] Control and ATRA treated samples are shown with black and gray line respectively. Unstained controls are depicted with filled histogram. […] FIGS. 15F-15G Cytotoxicity and DARA-mediated ADCC activity of paired CD38^WT and CD38^KO NK cells against myeloma cell lines in a 48 hour-cytotoxicity assay in the presence of 50 nM ATRA or solvent control. E:T ratio is 0.25:1 for MM.1S and 0.5:1 for KMS-11 (mean±SD).

[2] = test system: CD38 on NK cells; assay: CD38 expression on NK cells after ex vivo ATRA; format: cell-based, human; settings: 50 nM, 48 hours
Procedure: as §1

[3] = test system: MM cell lines; assay: Flow-based cytotoxicity / ADCC assay; format: cell-based, human
Procedure: NK function assays. NK cell conjugation assay was performed as previously published and as detailed above. To quantify fratricide, CD38^WT and CD38^KO NK cells were each treated with 10 μg/ml of DARA or solvent control for 4 or 24 hours, then stained with PO-PRO™-1 dye (Invitrogen, Eugene, Oreg.) and 7-aminoactinomycin D (7-AAD) (Invitrogen, Eugene, Oreg.)^15. Flow-based killing assays were performed as detailed in Supplemental Methods. In brief, CD38^WT or CD38^KO NK cells were co-cultured with CFSE-labeled target MM cells for 4 or 24 hours in the presence of 10 μg/ml of DARA or solvent as control.
(§2) To assess ADCC, MM cell lines or purified primary CD138^+ MM cells were labeled with 5 μM of CFSE and co-cultured with CD38^WT or CD38^KO NK cells at the indicated effector-to-target (E:T) ratios in flat bottom 96-well plates (Falcon, USA) in the presence of 10 μg/ml of DARA or solvent as control^38. […] The viability of target cells was analyzed after 4 hours for MM cell lines, and 24 hours for primary samples. In some experiments, myeloma cell lines were pretreated with 50 nM of ATRA for 2 days prior to 4-hour cytotoxicity assay. To study the effect of ATRA on overall DARA-mediated NK cell cytotoxicity, MM cells and NK cells were co-cultured for 48 hours in the presence of DARA and 50 nM of ATRA. Viable target cells were assessed from the percent or absolute number of 7-AAD negative/CFSE positive cells among total CFSE positive cells or using beads. Background was determined from the target cells incubated in the absence of effector cells and DARA. The percentage of DARA-mediated ADCC (%) was calculated according to the formula: (1−the percent or absolute number of viable target cells in the presence of effector cells with DARA/that of the corresponding sample with solvent control)×100. All assays were performed in triplicate with 2 or 3 independent donors.

[4] = test system: NK cells; assay: NK cell fratricide assay (viability of NK cells treated with anti-CD38 antibody); format: cell-based, human; settings: DARA 48 hours with 50 nM ATRA
Procedure: NK function assays. NK cell conjugation assay was performed as previously published and as detailed above. […] Flow-based killing assays were performed as detailed in Supplemental Methods. In brief, CD38^WT or CD38^KO NK cells were co-cultured with CFSE-labeled target MM cells for 4 or 24 hours in the presence of 10 μg/ml of DARA or solvent as control.
[…] Viable NK cells (PO-PRO™-1 negative/7-AAD negative) were assessed based on the frequency or absolute number using beads (Becton Dickinson Biosciences).

[5] = test system: CD38 on MM cell lines; assay: CD38 expression on MM cell lines after ATRA; format: cell-based, human; settings: pretreatment, 50 nM, 48 hours
Description: Control and ATRA treated samples are shown with black and gray line respectively. Unstained controls are depicted with filled histogram.

[6] = test system: H929 cell line; assay: Flow-based cytotoxicity assay; format: cell-based, human; settings: absence of NK cells and complement, DARA 10 μg/ml, 4 hours
Procedure: FIGS. 11A-11D show resistance of CD16^KO NK cells to DARA-induced fratricide.
as §2

[7] = test system: NK cells; settings: patients; cited from earlier work
[8] = concurrent treatment of MM and NK cells, 50 nM, 48 hours

Molecule: CC1=C(/C=C/C(C)=C/C=C/C(C)=C/C(=O)O)C(C)(C)CCC1 [ATRA, all-trans retinoic acid]
- CD38 on PB-NK of patients [1]: significant up-regulation of CD38
- CD38 levels on CD38^KO NK cells [2]: not on the paired CD38^KO NK cells
- CD38 levels on CD38^WT NK cells [2]: up-regulates CD38 levels
- DARA-mediated ADCC ([3]; MM cells pretreated with ATRA, both CD38^WT and CD38^KO NK cells): improves DARA-mediated ADCC
- DARA-mediated ADCC of CD38^KO NK cells [3, 8]: no impact
- DARA-mediated ADCC of CD38^WT NK cells [3, 8]: significantly impaired
- direct cytotoxicity of CD38^WT and paired CD38^KO NK cells ([3]; concurrent treatment, 50 nM, 48 hours): significantly reduced direct cytotoxicity
- fratricide of CD38^WT NK cells [4]: enhanced fratricide
- CD38 levels on MM target cells [5]: up-regulates CD38 levels

Molecule: DARA: monoclonal antibody targeting CD38
- DARA-mediated lysis [6]: no DARA-mediated lysis
- persistence of decrease in circulating NK cells after discontinuation of treatment [7]: 3-6 months
